# Key:
# [1] = molecular target: T1, CDK18/cyclin Y (PCTK3) (Homo sapiens, UniProt Q07002); test: HotSpot kinase assay; assay type: biochemical; details: read-out: % Enzyme Activity (relative to DMSO controls)
# T1 construct: purchased Reaction Biology Corporation
# [2] = molecular target: T2, LCK2/ICK (Homo sapiens, UniProt Q9UPZ9); test: HotSpot kinase assay; assay type: biochemical; details: read-out: % Enzyme Activity (relative to DMSO controls)
# T2 construct: purchased Reaction Biology Corporation
# [3] = molecular target: T3, DYRK4 (Homo sapiens, UniProt Q9NR20); test: HotSpot kinase assay; assay type: biochemical; details: 10µM; read-out: % Enzyme Activity (relative to DMSO controls)
# T3 construct: purchased Reaction Biology Corporation
# Experimental: (§1) Kinase activity were performed by Reaction Biology Corporation using the “HotSpot” assay platform modified from the published procedure.
# [4] = molecular target: T4, AMPK(A1/B1/G2) (Homo sapiens, UniProt Q13131); test: HotSpot kinase assay; assay type: biochemical; details: 10µM; read-out: % Enzyme Activity (relative to DMSO controls)
# T4 construct: purchased Reaction Biology Corporation
# Experimental: as §1
# [5] = molecular target: T5, EIF2AK1 (Homo sapiens, UniProt Q9BQI3); test: HotSpot kinase assay; assay type: biochemical; details: 10µM; read-out: % Enzyme Activity (relative to DMSO controls)
# T5 construct: purchased Reaction Biology Corporation
# Experimental: as §1
# [6] = molecular target: T6, NEK7 (Homo sapiens, UniProt Q8TDX7); test: HotSpot kinase assay; assay type: biochemical; details: 10µM; read-out: % Enzyme Activity (relative to DMSO controls)
# T6 construct: purchased Reaction Biology Corporation
# Experimental: as §1
# [7] = molecular target: T7, CK2a (Homo sapiens, UniProt P68400); test: HotSpot kinase assay; assay type: biochemical; details: 10µM; read-out: % Enzyme Activity (relative to DMSO controls)
# T7 construct: purchased Reaction Biology Corporation
# Experimental: as §1
# [8] = molecular target: T8, AMPK (A1/B2/G3) (Homo sapiens, UniProt Q13131); test: HotSpot kinase assay; assay type: biochemical; details: 10µM; read-out: % Enzyme Activity (relative to DMSO controls)
# T8 construct: purchased Reaction Biology Corporation
# Experimental: as §1
# [9] = molecular target: T9, ERK1 (Homo sapiens, UniProt P27361); test: HotSpot kinase assay; assay type: biochemical; details: 10µM; read-out: % Enzyme Activity (relative to DMSO controls)
# T9 construct: purchased Reaction Biology Corporation
# Experimental: as §1
# [10] = molecular target: T10, AMPK(A1/B1/G1) (Homo sapiens, UniProt Q13131); test: HotSpot kinase assay; assay type: biochemical; details: 10µM; read-out: % Enzyme Activity (relative to DMSO controls)
# T10 construct: purchased Reaction Biology Corporation
# Experimental: as §1
# [11] = molecular target: T11, PDK4/PDHK4 (Homo sapiens, UniProt Q16654); test: HotSpot kinase assay; assay type: biochemical; details: 10µM; read-out: % Enzyme Activity (relative to DMSO controls)
# T11 construct: purchased Reaction Biology Corporation
# Experimental: as §1
# [12] = molecular target: T12, WNK3 (Homo sapiens, UniProt Q9BYP7); test: HotSpot kinase assay; assay type: biochemical; details: 10µM; read-out: % Enzyme Activity (relative to DMSO controls)
# T12 construct: purchased Reaction Biology Corporation
# Experimental: as §1
# [13] = molecular target: T13, HIPK1 (Homo sapiens, UniProt Q86Z02); test: HotSpot kinase assay; assay type: biochemical; details: 10µM; read-out: % Enzyme Activity (relative to DMSO controls)
# T13 construct: purchased Reaction Biology Corporation
# Experimental: as §1
# [14] = molecular target: T14, AMPK (A2/B1/G3) (Homo sapiens, UniProt P54646); test: HotSpot kinase assay; assay type: biochemical; details: 10µM; read-out: % Enzyme Activity (relative to DMSO controls)
# T14 construct: purchased Reaction Biology Corporation
# Experimental: as §1
# [15] = molecular target: T15, TTBK1 (Homo sapiens, UniProt Q5TCY1); test: HotSpot kinase assay; assay type: biochemical; details: 10µM; read-out: % Enzyme Activity (relative to DMSO controls)
# T15 construct: purchased Reaction Biology Corporation
# Experimental: as §1
# [16] = molecular target: T16, AMPK(A2/B2/G1) (Homo sapiens, UniProt P54646); test: HotSpot kinase assay; assay type: biochemical; details: 10µM; read-out: % Enzyme Activity (relative to DMSO controls)
# T16 construct: purchased Reaction Biology Corporation
# Experimental: as §1
# [17] = molecular target: T17, NEK6 (Homo sapiens, UniProt Q9HC98); test: HotSpot kinase assay; assay type: biochemical; details: 10µM; read-out: % Enzyme Activity (relative to DMSO controls)
# T17 construct: purchased Reaction Biology Corporation
# Experimental: as §1
# [18] = molecular target: T18, AMPK(A2/B2/G3) (Homo sapiens, UniProt P54646); test: HotSpot kinase assay; assay type: biochemical; details: 10µM; read-out: % Enzyme Activity (relative to DMSO controls)
# T18 construct: purchased Reaction Biology Corporation
# Experimental: as §1
# [19] = molecular target: T19, COT1/MAP3K8 (Homo sapiens, UniProt P41279); test: HotSpot kinase assay; assay type: biochemical; details: 10µM; read-out: % Enzyme Activity (relative to DMSO controls)
# T19 construct: purchased Reaction Biology Corporation
# Experimental: as §1
# [20] = molecular target: T20, TGFBR2 (Homo sapiens, UniProt P37173); test: HotSpot kinase assay; assay type: biochemical; details: 10µM; read-out: % Enzyme Activity (relative to DMSO controls)
# T20 construct: purchased Reaction Biology Corporation
# Experimental: as §1
# [21] = molecular target: T21, ARAF (Homo sapiens, UniProt P10398); test: HotSpot kinase assay; assay type: biochemical; details: 10µM; read-out: % Enzyme Activity (relative to DMSO controls)
# T21 construct: purchased Reaction Biology Corporation
# Experimental: as §1
# [22] = molecular target: T22, NEK3 (Homo sapiens, UniProt P51956); test: HotSpot kinase assay; assay type: biochemical; details: 10µM; read-out: % Enzyme Activity (relative to DMSO controls)
# T22 construct: purchased Reaction Biology Corporation
# Experimental: as §1
# [23] = molecular target: T23, AMPK(A1/B2/G1) (Homo sapiens, UniProt Q13131); test: HotSpot kinase assay; assay type: biochemical; details: 10µM; read-out: % Enzyme Activity (relative to DMSO controls)
# T23 construct: purchased Reaction Biology Corporation
# Experimental: as §1
# [24] = molecular target: T24, ZAK/MLTK (Homo sapiens, UniProt Q9NYL2); test: HotSpot kinase assay; assay type: biochemical; details: 10µM; read-out: % Enzyme Activity (relative to DMSO controls)
# T24 construct: purchased Reaction Biology Corporation
# Experimental: as §1
# [25] = molecular target: T25, AMPK(A2/B1/G1) (Homo sapiens, UniProt P54646); test: HotSpot kinase assay; assay type: biochemical; details: 10µM; read-out: % Enzyme Activity (relative to DMSO controls)
# T25 construct: purchased Reaction Biology Corporation
# Experimental: as §1
# [26] = molecular target: T26, VRK2 (Homo sapiens, UniProt Q86Y07); test: HotSpot kinase assay; assay type: biochemical; details: 10µM; read-out: % Enzyme Activity (relative to DMSO controls)
# T26 construct: purchased Reaction Biology Corporation
# Experimental: as §1
# [27] = molecular target: T27, PDK1/PDHK1 (Homo sapiens, UniProt Q15118); test: HotSpot kinase assay; assay type: biochemical; details: 10µM; read-out: % Enzyme Activity (relative to DMSO controls)
# T27 construct: purchased Reaction Biology Corporation
# Experimental: as §1
# [28] = molecular target: T28, PDK2/PDHK2 (Homo sapiens, UniProt Q15119); test: HotSpot kinase assay; assay type: biochemical; details: 10µM; read-out: % Enzyme Activity (relative to DMSO controls)
# T28 construct: purchased Reaction Biology Corporation
# Experimental: as §1
# [29] = molecular target: T29, PDK3/PDHK3 (Homo sapiens, UniProt Q15120); test: HotSpot kinase assay; assay type: biochemical; details: 10µM; read-out: % Enzyme Activity (relative to DMSO controls)
# T29 construct: purchased Reaction Biology Corporation
# Experimental: as §1
# [30] = molecular target: T30, LOK/STK10 (Homo sapiens, UniProt O94804); test: HotSpot kinase assay; assay type: biochemical; details: 10µM; read-out: % Enzyme Activity (relative to DMSO controls)
# T30 construct: purchased Reaction Biology Corporation
# Experimental: as §1
# [31] = molecular target: T31, TRPM7/CHAK1 (Homo sapiens, UniProt Q96QT4); test: HotSpot kinase assay; assay type: biochemical; details: 10µM; read-out: % Enzyme Activity (relative to DMSO controls)
# T31 construct: purchased Reaction Biology Corporation
# Experimental: as §1
# [32] = molecular target: T32, TTBK2 (Homo sapiens, UniProt Q6IQ55); test: HotSpot kinase assay; assay type: biochemical; details: 10µM; read-out: % Enzyme Activity (relative to DMSO controls)
# T32 construct: purchased Reaction Biology Corporation
# Experimental: as §1
# [33] = molecular target: T33, HPK1/MAP4K1 (Homo sapiens, UniProt Q92918); test: HotSpot kinase assay; assay type: biochemical; details: 10µM; read-out: % Enzyme Activity (relative to DMSO controls)
# T33 construct: purchased Reaction Biology Corporation
# Experimental: as §1
# [34] = molecular target: T34, AMPK(A2/B2/G2) (Homo sapiens, UniProt P54646); test: HotSpot kinase assay; assay type: biochemical; details: 10µM; read-out: % Enzyme Activity (relative to DMSO controls)
# T34 construct: purchased Reaction Biology Corporation
# Experimental: as §1
# [35] = molecular target: T35, WEE1 (Homo sapiens, UniProt P30291); test: HotSpot kinase assay; assay type: biochemical; details: read-out: % Enzyme Activity (relative to DMSO controls)
# T35 construct: purchased Reaction Biology Corporation
# Experimental: as §1
# [36] = molecular target: T36, VRK1 (Homo sapiens, UniProt Q99986); test: HotSpot kinase assay; assay type: biochemical; details: 10µM; read-out: % Enzyme Activity (relative to DMSO controls)
# T36 construct: purchased Reaction Biology Corporation
# Experimental: as §1
# [37] = molecular target: T37, CK1g2 (Homo sapiens, UniProt P78368); test: HotSpot kinase assay; assay type: biochemical; details: read-out: % Enzyme Activity (relative to DMSO controls)
# T37 construct: purchased Reaction Biology Corporation
# [38] = molecular target: T38, EIF2AK3 (Homo sapiens, UniProt Q9NZJ5); test: HotSpot kinase assay; assay type: biochemical; details: read-out: % Enzyme Activity (relative to DMSO controls)
# T38 construct: purchased Reaction Biology Corporation
# [39] = molecular target: T39, IR (Homo sapiens, UniProt P06213); test: biochemical
# T39 construct: purchased Reaction Biology Corporation
# [40] = molecular target: T40, RAF1 (Homo sapiens, UniProt P04049); test: HotSpot kinase assay; assay type: biochemical; details: read-out: % Enzyme Activity (relative to DMSO controls)
# T40 construct: purchased Reaction Biology Corporation
# [41] = molecular target: T41, RON/MST1R (Homo sapiens, UniProt Q04912); test: HotSpot kinase assay; assay type: biochemical; details: read-out: % Enzyme Activity (relative to DMSO controls)
# T41 construct: purchased Reaction Biology Corporation
# T39 sequence (P06213 980-1382 limits assumed): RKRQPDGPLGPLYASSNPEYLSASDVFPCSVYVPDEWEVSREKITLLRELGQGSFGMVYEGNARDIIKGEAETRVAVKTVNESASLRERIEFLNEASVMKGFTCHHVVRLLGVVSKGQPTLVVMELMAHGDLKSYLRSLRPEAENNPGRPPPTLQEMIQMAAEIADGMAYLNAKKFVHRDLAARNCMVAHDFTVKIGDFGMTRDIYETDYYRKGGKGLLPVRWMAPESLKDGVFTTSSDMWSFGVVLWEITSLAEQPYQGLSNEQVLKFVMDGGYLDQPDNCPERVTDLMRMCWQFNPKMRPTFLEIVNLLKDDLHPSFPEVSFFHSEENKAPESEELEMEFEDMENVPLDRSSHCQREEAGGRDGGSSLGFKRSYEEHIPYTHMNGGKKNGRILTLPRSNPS
# T38 sequence (Q9NZJ5 30-1116): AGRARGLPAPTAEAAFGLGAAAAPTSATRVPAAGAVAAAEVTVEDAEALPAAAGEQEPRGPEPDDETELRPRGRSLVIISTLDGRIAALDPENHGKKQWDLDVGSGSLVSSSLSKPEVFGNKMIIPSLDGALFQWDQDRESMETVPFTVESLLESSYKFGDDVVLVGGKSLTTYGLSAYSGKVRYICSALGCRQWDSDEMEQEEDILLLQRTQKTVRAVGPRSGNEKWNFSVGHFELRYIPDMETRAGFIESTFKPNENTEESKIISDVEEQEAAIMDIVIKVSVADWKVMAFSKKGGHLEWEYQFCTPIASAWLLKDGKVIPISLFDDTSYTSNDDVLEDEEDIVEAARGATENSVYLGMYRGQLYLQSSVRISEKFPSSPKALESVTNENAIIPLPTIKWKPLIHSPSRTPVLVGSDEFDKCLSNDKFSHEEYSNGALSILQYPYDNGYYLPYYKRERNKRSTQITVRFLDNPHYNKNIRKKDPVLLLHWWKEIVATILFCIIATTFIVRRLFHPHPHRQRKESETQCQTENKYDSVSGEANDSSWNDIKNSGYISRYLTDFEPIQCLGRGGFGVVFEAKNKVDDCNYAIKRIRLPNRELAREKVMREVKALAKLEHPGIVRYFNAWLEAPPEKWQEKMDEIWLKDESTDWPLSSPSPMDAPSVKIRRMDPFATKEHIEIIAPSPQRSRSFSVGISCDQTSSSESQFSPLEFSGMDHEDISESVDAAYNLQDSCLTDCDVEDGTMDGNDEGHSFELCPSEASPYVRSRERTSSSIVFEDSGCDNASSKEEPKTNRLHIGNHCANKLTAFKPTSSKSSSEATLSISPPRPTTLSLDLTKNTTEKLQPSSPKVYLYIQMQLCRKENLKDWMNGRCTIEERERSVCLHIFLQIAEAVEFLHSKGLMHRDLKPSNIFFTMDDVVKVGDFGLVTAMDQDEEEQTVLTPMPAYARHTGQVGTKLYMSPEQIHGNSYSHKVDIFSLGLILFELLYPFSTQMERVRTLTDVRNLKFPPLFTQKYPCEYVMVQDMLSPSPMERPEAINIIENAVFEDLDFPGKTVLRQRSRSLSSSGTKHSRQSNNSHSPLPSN
# T32 sequence (Q6IQ55 whole entry): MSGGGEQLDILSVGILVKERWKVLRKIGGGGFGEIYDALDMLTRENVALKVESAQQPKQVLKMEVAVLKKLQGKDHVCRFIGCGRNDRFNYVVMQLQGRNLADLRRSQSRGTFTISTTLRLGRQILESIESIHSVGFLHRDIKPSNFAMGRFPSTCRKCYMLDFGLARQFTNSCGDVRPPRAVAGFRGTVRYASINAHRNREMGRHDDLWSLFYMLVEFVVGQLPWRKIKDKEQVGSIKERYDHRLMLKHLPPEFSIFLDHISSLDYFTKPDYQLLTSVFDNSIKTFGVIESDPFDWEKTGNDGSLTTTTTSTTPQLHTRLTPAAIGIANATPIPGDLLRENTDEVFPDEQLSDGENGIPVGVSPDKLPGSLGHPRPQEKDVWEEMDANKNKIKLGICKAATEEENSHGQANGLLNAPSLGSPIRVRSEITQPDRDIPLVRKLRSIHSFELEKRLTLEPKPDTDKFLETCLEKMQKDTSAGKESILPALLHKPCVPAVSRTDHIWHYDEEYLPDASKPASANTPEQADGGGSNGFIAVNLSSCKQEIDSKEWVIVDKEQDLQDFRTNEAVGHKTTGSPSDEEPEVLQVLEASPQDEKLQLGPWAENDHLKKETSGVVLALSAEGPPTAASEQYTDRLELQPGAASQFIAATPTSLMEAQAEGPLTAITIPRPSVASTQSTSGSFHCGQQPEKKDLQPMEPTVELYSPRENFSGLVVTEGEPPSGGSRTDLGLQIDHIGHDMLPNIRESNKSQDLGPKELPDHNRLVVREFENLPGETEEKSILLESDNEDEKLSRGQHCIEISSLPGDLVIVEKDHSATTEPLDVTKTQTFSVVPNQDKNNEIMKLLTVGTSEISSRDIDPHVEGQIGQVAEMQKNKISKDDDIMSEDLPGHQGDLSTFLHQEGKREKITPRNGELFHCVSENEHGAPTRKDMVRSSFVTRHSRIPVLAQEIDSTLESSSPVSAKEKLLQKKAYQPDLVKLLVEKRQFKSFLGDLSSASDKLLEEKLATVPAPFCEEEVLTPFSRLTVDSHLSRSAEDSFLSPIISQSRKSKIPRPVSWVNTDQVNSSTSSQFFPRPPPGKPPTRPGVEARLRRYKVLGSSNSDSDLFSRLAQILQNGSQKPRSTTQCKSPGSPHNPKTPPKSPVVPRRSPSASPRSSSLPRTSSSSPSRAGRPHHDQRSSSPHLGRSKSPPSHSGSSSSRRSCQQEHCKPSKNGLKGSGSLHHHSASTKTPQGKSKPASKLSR
# T31 sequence (Q96QT4 whole entry): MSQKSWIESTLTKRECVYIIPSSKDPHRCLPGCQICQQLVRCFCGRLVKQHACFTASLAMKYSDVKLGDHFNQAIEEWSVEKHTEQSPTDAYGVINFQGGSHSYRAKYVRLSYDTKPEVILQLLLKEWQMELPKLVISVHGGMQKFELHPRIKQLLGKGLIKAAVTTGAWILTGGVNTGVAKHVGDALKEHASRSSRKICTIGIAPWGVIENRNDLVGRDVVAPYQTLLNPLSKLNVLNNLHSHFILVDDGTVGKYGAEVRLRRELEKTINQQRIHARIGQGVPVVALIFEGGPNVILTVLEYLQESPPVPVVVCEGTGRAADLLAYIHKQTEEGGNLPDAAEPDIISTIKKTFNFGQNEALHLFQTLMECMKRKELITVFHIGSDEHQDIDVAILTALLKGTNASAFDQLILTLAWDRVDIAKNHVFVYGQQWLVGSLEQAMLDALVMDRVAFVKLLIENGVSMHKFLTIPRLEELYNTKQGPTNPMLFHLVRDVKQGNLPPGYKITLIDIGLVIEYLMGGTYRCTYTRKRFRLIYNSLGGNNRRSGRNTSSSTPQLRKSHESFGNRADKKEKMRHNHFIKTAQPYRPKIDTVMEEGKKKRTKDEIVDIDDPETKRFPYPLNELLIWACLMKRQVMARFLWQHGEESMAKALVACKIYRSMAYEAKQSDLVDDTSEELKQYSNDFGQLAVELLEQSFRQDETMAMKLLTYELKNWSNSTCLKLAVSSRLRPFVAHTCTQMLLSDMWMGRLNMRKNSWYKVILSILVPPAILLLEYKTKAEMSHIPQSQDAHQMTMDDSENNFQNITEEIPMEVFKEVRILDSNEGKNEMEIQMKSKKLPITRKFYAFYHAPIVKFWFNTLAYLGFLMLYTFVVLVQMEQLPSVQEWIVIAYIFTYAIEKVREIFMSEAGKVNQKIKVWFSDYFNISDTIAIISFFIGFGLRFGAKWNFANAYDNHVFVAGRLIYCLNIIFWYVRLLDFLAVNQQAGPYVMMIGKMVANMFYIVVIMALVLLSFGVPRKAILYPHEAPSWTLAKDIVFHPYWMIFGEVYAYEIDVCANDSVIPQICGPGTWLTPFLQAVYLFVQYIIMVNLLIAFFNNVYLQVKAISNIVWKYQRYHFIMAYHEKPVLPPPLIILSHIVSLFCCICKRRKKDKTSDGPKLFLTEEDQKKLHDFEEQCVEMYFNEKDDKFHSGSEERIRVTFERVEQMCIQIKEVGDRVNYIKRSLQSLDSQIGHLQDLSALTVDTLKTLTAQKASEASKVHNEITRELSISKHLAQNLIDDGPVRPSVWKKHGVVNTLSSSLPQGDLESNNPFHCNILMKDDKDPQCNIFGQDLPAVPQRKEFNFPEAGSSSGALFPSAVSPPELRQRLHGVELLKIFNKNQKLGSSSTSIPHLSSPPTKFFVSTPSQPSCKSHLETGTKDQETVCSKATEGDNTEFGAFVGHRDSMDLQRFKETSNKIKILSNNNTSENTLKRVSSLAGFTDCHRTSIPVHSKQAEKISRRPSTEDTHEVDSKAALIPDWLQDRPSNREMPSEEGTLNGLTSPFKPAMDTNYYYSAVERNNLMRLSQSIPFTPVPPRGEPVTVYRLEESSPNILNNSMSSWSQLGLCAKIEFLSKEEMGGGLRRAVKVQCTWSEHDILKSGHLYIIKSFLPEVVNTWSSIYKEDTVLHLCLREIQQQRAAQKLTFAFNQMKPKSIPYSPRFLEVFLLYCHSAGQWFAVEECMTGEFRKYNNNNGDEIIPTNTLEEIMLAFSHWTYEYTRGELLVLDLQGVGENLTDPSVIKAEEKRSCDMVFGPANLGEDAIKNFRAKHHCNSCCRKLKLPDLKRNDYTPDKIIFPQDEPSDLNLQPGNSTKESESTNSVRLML
# T6 sequence (Q8TDX7 whole entry): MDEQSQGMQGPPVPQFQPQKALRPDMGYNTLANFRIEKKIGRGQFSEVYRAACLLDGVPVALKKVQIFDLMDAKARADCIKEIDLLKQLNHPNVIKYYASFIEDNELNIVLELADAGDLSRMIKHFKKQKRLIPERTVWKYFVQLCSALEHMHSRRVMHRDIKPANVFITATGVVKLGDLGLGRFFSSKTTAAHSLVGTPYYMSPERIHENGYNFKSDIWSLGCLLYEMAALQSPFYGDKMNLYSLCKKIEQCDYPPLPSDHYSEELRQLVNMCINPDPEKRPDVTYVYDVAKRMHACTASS
smiles,measurement,setting,value
CO[C@@H]1[C@H](N(C)C(=O)CCC(=O)NCc2cn(CCCS(=O)(=O)O)nn2)C[C@H]2O[C@]1(C)n1c3ccccc3c3c4c(c5c6ccccc6n2c5c31)C(=O)NC4 [CIMSS],remaining activity at 10 µM,[1],41.3%
same,remaining activity at 10 µM,[2],4.57%
same,remaining activity at 10 µM,[3],92%
same,remaining activity at 10 µM,[4],1.46%
same,remaining activity at 10 µM,[5],82.5%
same,remaining activity at 10 µM,[6],88.5%
same,remaining activity at 10 µM,[7],71.4%
same,remaining activity at 10 µM,[8],1.13%
same,remaining activity at 10 µM,[9],91.8%
same,remaining activity at 10 µM,[10],1.14%
same,remaining activity at 10 µM,[11],93.2%
same,remaining activity at 10 µM,[12],66.4%
same,remaining activity at 10 µM,[13],36.4%
same,remaining activity at 10 µM,[14],0.67%
same,remaining activity at 10 µM,[15],67.7%
same,remaining activity at 10 µM,[16],0.34%
same,remaining activity at 10 µM,[17],89%
same,remaining activity at 10 µM,[18],0.63%
same,remaining activity at 10 µM,[19],110%
same,remaining activity at 10 µM,[20],111%
same,remaining activity at 10 µM,[21],154%
same,remaining activity at 10 µM,[22],87.3%
same,remaining activity at 10 µM,[23],0.73%
same,remaining activity at 10 µM,[24],82.7%
same,remaining activity at 10 µM,[25],0.76%
same,remaining activity at 10 µM,[26],81.8%
same,remaining activity at 10 µM,[27],97.2%
same,remaining activity at 10 µM,[28],95.5%
same,remaining activity at 10 µM,[29],96.4%
same,remaining activity at 10 µM,[30],2.86%
same,remaining activity at 10 µM,[31],91.6%
same,remaining activity at 10 µM,[32],95.1%
same,remaining activity at 10 µM,[33],2.66%
same,remaining activity at 10 µM,[34],0.73%
same,remaining activity at 10 µM,[35],44.2%
same,remaining activity at 10 µM,[36],81.6%
same,remaining activity at 10 µM,[37],98.5%
same,remaining activity at 10 µM,[38],61.6%
same,IC50,"[39]; Supplementary Table 1, Insulin Receptor, read-out: IC50 (Molar concentration)",803 nM
same,remaining activity at 10 µM,"[39]; read-out: % Enzyme Activity (relative to DMSO controls), 10µM",15.8%
same,remaining activity at 10 µM,[40],111%
same,remaining activity at 10 µM,[41],25.1%

# From PMC9569420 (Communications Biology, 2022)
